The source made the active and inactive calls. The calls are words filed in the database; no cut-off is given here.
Key:
[1] = Binding affinity to avidin at 80 uM by UV-vis spectroscopy
[2] = Binding affinity to avidin by UV-vis spectroscopy
[3] = Binding affinity to avidin at 1.6 mM by UV-vis spectroscopy

Structure (SMILES)	Activity [1]	further results
CN(C)CC(=O)OCCCCCCCCCCNC(=O)CCCCCNC(=O)CCCC[C@@H]1SC[C@@H]2NC(=O)N[C@@H]21	Active	
CN(C)CC(=O)OCCCCCCNC(=O)CCCCCNC(=O)CCCC[C@@H]1SC[C@@H]2NC(=O)N[C@@H]21	Active	
O=C(O)CCCC[C@@H]1SC[C@@H]2NC(=O)N[C@@H]21		Ka [2]: 1e+15 M⁻¹
COc1nc(Cl)nc(OC)n1		Activity [3]: Active
NCc1ccc(Br)cc1		Activity [2]: Active
CN(C)S(=O)(=O)c1ccc(NCCN)c2nonc12		Activity [2]: Active
CN(C)CC(=O)OCCCCCCCCNC(=O)CCCCCNC(=O)CCCC[C@@H]1SC[C@@H]2NC(=O)N[C@@H]21	Active	
CN(C)CC(=O)OCCCCNC(=O)CCCCCNC(=O)CCCC[C@@H]1SC[C@@H]2NC(=O)N[C@@H]21	Active	
CN(C)CC(=O)OCCCCCNC(=O)CCCCCNC(=O)CCCC[C@@H]1SC[C@@H]2NC(=O)N[C@@H]21	Active	
NCCNC(=O)COc1cc(S(=O)(=O)O)c2ccc3c(S(=O)(=O)O)cc(S(=O)(=O)O)c4ccc1c2c43		Activity [3]: Active

Reference: ChEMBL document CHEMBL1629502, “Labeling study of avidin by modular method for affinity labeling (MoAL)” (Bioorg Med Chem Lett, 2010)
